{"source": "patent US7582068B2", "about": "“Occlusion resistant hydrocephalic shunt” (Medtronic, Inc., priority 2004, dated 2009)", "test_system": "tissue in-growth of the catheter lumen", "assay": "Tissue in-growth scoring of catheters explanted from rats after 3 months (SEM)", "format": "in vivo, rat", "conditions": "peritoneal and ventricular catheters in rats, MPA compared to drug-free control, dual drug compared to single drug loading", "procedure": "Micophenolic acid (MPA) was loaded into ventricular and peritoneal catheter, design of which is described in the example 16. MPA was loaded into ventricular catheter by solvent impregnation using 50 mg/ml MPA in THF followed by drug loading into a silicone plug with 10 wt % drug concentration. Peritoneal sample was loaded by solvent impregnation using 12.5 mg/ml MPA solution in THF followed by drug loading into a plug using 2.5 mg/ml MPA in silicone rubber. Samples were implanted into rat such that the ventricular sample was placed in a lateral ventricle of the rat and the peritoneal samples was implanted into rat peritoneal cavity. In total 6 ventricular and 6 peritoneal samples were implanted into 6 rats. 12 drug-free catheters of the same configuration were implanted in the other 6 rats as controls. After 3 months samples were explanted and the tissue in-growth was scored between 1 and 5 on a basis of SEM photographs of longitudinally split catheters. […]\nVentricular and peritoneal samples were loaded with RAPA and MPA according to the following procedure: catheters were impregnated with 50 mg/ml of MPA solution in THF followed by plugging with 5 wt % RAPA in silicone Samples were implanted in rats and analyzed as described in the Example 17.", "data": [{"smiles": "COc1c(C)c2c(c(O)c1C/C=C(\\C)CCC(=O)O)C(=O)OC2", "note": "[MPA, Mycophenolic acid]", "values": [{"measurement": "Effect on tissue proliferation (in words)", "value": "decrease of tissue proliferation"}]}]}
